Measured values as given in patent publication US7834173B2, “Esters of hyaluronic acid with rhein, process for their preparation and compositions comprising the same” (Laboratoire Medidom S.A., priority 2004, dated 2010).

Experiment: Viscosity / syringeability of 1% w/v solutions (VISCOMATE VM-10A)
Format: physicochemical
Details: 1% w/v in phosphate-buffered saline solution pH 7.4, 20±0.2° C., no stirring
Experimental: The syringeability of the HA-Re compound of the invention was analysed in comparison to that of hyaluronic acid both with a high and a low molecular weight.
In particular, the following three samples were prepared: • a) a 1% w/v solution of high molecular weight hyaluronic acid (average molecular weight approximately 1'200'000) in phosphate-buffered saline solution, pH 7.4 • b) a 1% w/v solution of low molecular weight hyaluronic acid (average molecular weight approximately 600'000) in phosphate-buffered saline solution, pH 7.4 • c) a 1% w/v solution of the HA-Re compound of the invention in phosphate-buffered saline solution, pH 7.4.
The viscosity of the samples was then measured using a VISCOMATE MODEL VM-10A (glass vial: 3 ml; in the absence of stirring conditions; temperature 20±0.2° C.), with the following values being obtained: • a) η=78.4 mPa·s • b) η=64.8 mPa·s • c) η=47.9 mPa·s

- viscosity η: 64.8 mPa·s
Substance: low molecular weight hyaluronic acid
